Reference: patent US20230277630A1, “METHODS AND COMPOSITIONS FOR TREATING AMYOTROPHIC LATERAL SCLEROSIS” (Amylyx Pharmaceuticals, Inc., priority 2022, published 2023)

What was measured:
[1] = target: CYP2D6 (Homo sapiens, UniProt P10635); assay: Inhibition of CYP2D6 activity in human liver microsomes; assay type: in vitro ADME; parameters: co-incubated with pooled HLM (0.25 mg protein/mL); from tissue; host or cells: pooled human liver microsomes; conditions: pooled human liver microsomes, pH 7.4, read-out: % of Control Enzyme Activity (n = 3) Average
Sequence of CYP2D6 (P10635 whole entry): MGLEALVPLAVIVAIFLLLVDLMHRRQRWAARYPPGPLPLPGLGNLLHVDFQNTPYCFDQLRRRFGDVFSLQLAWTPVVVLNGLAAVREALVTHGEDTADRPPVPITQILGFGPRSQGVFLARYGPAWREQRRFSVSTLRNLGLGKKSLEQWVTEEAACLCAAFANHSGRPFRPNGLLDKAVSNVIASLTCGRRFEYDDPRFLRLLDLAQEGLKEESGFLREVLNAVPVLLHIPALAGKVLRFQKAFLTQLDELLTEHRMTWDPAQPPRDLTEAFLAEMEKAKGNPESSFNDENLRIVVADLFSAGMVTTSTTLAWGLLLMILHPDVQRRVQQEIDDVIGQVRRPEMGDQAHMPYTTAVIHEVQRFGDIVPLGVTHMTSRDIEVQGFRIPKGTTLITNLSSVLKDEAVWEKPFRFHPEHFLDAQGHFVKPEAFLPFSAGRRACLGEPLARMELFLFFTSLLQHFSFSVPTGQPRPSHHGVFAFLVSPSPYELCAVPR

[2] = target: T1, OAT3 (Homo sapiens, UniProt Q8TCC7); assay: in vitro; conditions: probe furosemide (5 μM)
T1 sequence (Q8TCC7 1-542): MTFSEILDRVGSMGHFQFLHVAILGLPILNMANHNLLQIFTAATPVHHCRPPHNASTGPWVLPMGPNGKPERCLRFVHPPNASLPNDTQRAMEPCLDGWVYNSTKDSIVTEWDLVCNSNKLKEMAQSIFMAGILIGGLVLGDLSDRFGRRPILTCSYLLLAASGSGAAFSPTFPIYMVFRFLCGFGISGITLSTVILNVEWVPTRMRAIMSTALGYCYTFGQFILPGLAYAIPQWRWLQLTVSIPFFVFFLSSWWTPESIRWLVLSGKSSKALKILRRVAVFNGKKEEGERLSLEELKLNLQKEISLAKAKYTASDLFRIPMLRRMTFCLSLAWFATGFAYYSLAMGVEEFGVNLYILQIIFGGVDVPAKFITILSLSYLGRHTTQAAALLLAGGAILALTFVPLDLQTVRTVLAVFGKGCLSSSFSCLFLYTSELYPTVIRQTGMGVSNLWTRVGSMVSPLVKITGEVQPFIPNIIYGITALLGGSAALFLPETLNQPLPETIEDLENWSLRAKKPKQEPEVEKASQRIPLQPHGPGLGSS

[3] = target: T1, OAT3; assay: OAT3 inhibitor (IC50) assessment, furosemide uptake in transfected HEK cells; conditions: 5 μM Furosemide + 100 μM Probenecid
[4] = target: T2, MATE2K (Homo sapiens, UniProt Q86VL8); assay: in vitro; conditions: probe metformin (50 μM)
T2 sequence (Q86VL8 1-566 isoform Q86VL8-3): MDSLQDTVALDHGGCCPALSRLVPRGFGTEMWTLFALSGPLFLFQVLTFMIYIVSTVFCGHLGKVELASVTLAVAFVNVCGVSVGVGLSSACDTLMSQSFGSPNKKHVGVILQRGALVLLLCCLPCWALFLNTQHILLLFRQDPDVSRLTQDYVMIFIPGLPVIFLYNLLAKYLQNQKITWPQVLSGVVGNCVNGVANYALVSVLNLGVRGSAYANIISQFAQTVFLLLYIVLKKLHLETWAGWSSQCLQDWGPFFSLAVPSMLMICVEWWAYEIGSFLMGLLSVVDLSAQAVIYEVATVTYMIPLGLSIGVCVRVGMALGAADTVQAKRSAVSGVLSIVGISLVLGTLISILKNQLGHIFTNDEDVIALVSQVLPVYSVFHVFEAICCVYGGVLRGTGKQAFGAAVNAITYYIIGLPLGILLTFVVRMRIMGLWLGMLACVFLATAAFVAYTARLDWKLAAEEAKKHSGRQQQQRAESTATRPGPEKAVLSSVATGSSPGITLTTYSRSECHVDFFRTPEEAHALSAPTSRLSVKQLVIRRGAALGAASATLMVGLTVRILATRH

[5] = target: T2, MATE2K; assay: MATE2K inhibitor (IC50) assessment, metformin uptake in transfected HEK cells; conditions: 50 μM Metformin + 1 μM Pyrimethamine
[6] = target: CYP2C9 (Homo sapiens, UniProt P11712); conditions: 4 μM, pH 7.4
Sequence of CYP2C9 (P11712 whole entry): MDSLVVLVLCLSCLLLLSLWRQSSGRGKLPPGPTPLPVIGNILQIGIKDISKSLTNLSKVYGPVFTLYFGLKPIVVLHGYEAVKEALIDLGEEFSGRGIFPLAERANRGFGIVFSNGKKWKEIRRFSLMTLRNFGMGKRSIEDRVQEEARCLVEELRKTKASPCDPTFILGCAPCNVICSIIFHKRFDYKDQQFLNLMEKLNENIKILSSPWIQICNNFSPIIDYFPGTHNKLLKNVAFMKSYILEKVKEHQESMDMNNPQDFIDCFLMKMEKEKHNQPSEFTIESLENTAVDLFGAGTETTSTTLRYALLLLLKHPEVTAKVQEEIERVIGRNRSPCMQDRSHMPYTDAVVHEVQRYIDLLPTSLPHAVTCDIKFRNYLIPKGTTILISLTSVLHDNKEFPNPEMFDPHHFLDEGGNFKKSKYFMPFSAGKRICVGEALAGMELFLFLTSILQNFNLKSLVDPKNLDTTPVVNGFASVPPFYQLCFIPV
Method: The remaining of TA (expressed as the peak area ratio of test article to IS) was determined by LC-MS/MS. CYP enzyme activities of the HLM were verified in parallel by determining the formation of individual CYP probe metabolites by LC-MS/MS using standard curves.

[7] = CYP reaction phenotyping: CYP control (negative control without CYP enzymes); conditions: pH 7.4
Method: The reaction was initiated by the addition of NADPH, followed by incubation at 37° C.

[8] = target: hrCYP2C9 (Homo sapiens, UniProt P11712)
Sequence of hrCYP2C9 (P11712 whole entry): as above

[9] = target: T3, OCT2 (Homo sapiens, UniProt O15244); assay: in vitro; conditions: probe MPP+ (5 μM)
T3 sequence (O15244 1-555): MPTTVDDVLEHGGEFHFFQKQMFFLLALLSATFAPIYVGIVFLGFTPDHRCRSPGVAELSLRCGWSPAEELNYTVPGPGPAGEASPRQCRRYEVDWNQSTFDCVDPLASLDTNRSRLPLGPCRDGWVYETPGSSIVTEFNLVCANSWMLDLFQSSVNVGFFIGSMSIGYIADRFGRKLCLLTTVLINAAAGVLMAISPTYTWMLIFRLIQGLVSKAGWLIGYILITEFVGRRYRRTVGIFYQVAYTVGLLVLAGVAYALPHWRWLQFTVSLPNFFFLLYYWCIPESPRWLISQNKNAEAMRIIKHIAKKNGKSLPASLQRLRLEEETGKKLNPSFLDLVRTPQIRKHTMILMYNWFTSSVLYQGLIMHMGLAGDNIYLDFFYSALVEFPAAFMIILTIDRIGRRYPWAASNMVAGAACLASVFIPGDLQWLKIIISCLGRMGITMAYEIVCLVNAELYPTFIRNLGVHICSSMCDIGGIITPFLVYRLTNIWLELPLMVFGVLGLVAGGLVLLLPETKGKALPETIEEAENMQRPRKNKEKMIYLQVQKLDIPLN

[10] = target: T3, OCT2; assay: OCT2 inhibitor (IC50) assessment, MPP+ uptake in transfected HEK cells; conditions: 5 μM MPP+ + 300 μM Imipramine

`C=C[C@H]1C[N@@]2CC[C@H]1C[C@@H]2[C@@H](O)c1ccnc2ccc(OC)cc12` [Quinidine] gave an activity at 10 μM [1] of 5.61%.

For `CCCN(CCC)S(=O)(=O)c1ccc(C(=O)O)cc1` [probenecid], the inhibition at 100 μM [2] was 99.1% and the “Percentage Inhibition of OAT3” value [3] was 99.1%.

For `CCc1nc(N)nc(N)c1-c1ccc(Cl)cc1` [pyrimethamine], the inhibition at 1 μM [4] was 85.3% and the “Percentage Inhibition of MATE2K” value [5] was 85.3%.

For `O=C(O)Cc1ccccc1Nc1c(Cl)cccc1Cl` [Diclofenac], the “Formation Rate Ratio” value [6] was 7.7, the “Formation Rate” value [7] was 0 pmol metabolite/min/mg Supersome protein and the “Measured Metabolite” value [7] was 0 µM. The “Formation Rate Ratio” value [8] was >>2, the “Formation Rate” value ([8]; human, 20 min, 6 μM, pH 7.4) was 845 pmol metabolite/min/mg Supersome protein and the “Measured Metabolite” value ([8]; human, 20 min, 6 μM, pH 7.4) was 1.56 µM.

In the case of `CN(C)CCCN1c2ccccc2CCc2ccccc21` [imipramine], the inhibition at 300 μM [9] is reported as 97.9% and the “Percentage Inhibition of OCT2” value [10] is reported as 97.9%.
